In brackets after ≈: the same amount, converted by molar mass.
Tests used:
[1] = test system: Coxsackievirus A-21; assay: Plaque assay, minimal inhibitory concentration; assay type: cell-based; conditions: HeLa Cells, inhibiting virus plaque formation by 50%
[2] = test system: Poliovirus Type 1; assay: microbe, parasite or virus in culture; assay type: cell-based; conditions: Enterovirus C, HeLa, read-out: Minimal Inhibitory Concentration
[3] = test system: Rhinovirus strain 14; assay: Protection of tissue from cytopathic effects (plaque inhibition, filter paper disc or agar overlay); conditions: 33°, 3 to 5 days
[4] = test system: Coxsackievirus A-11; assay: Plaque assay, minimal inhibitory concentration; assay type: cell-based; conditions: HeLa Cells, inhibiting virus plaque formation by 50%
[5] = test system: Rhinovirus Type 47; assay: Viral sensitivity, filter disc method; assay type: cell-based; conditions: strain 1979MCV46; about 50 mcg per disc, HeLa
Procedure: (§1) In the test for viral sensitivity, by the filter disc method, 5 mg. of 1-(4-phenyl-2-thiazolyl)-3-phenylguanidine was dissolved in 1-2 drops of dimethylsulfoxide and 2.5 ml. of saline. Filter paper discs, when saturated with the solution, absorbed about 50 mcg. of the compound.
(§2) Sensitivity tests were performed by a modification of the method of Herrmann, et al., Proc. Soc. Exp. Biol. & Med., 103, 625 (1960). HeLa monolayers in 150 mm plastic dishes were infected with 1.0 ml. of rhinovirus suspension known to produce destruction of 80-90% of the cells in 4 to 5 days. Following viral adsorption, the cells were overlayed with 30 ml. of Eagle's minimum essential medium containing Noble agar at 0.5%, bovine fetal serum at 2.0%, diethylaminoethyl dextran at 100 mcg/ml. and magnesium chloride at 3 millimoles. Filter discs (1/4 inch Carl Schleicher and Schuell Co., No. 740E), containing about 50 mcg. of 1-(4-phenyl-2-thiazolyl)-3-phenylguanidine, were placed on the solidified surface and the culture plates incubated at 33° C. After 4 to 5 days, the overlay medium was decanted and the cells stained with 0.1% crystal violet in 20% ethanol. A zone of 10 mm or more in which at least two-thirds of the cells were protected from viral cytopathic effects, indicates antiviral activity. The following Table III lists 35 rhinovirus serotypes which were inhibited by this compound.

[6] = test system: Rhinovirus Type 24; assay: Viral sensitivity, filter disc method; assay type: cell-based; conditions: strain 5146CV25; about 50 mcg per disc, HeLa
Procedure: as §1, §2

[7] = test system: Rhinovirus Type 49; assay: Viral sensitivity, filter disc method; assay type: cell-based; conditions: strain 8213; about 50 mcg per disc, HeLa
Procedure: as §1, §2

[8] = test system: Rhinovirus Type 2; assay: Viral sensitivity, filter disc method; assay type: cell-based; conditions: strain HGP; about 50 mcg per disc, HeLa
Procedure: as §1, §2

[9] = test system: Rhinovirus Type 53; assay: Viral sensitivity, filter disc method; assay type: cell-based; conditions: strain FO13928; about 50 mcg per disc, HeLa
Procedure: as §1, §2

[10] = test system: Rhinovirus Type 29; assay: Viral sensitivity, filter disc method; assay type: cell-based; conditions: strain 179E; about 50 mcg per disc, HeLa
Procedure: as §1, §2

[11] = test system: Rhinovirus Type 38; assay: Viral sensitivity, filter disc method; assay type: cell-based; conditions: strain CH79; about 50 mcg per disc, HeLa
Procedure: as §1, §2

[12] = test system: Rhinovirus Type 1B; assay: Viral sensitivity, filter disc method; assay type: cell-based; conditions: strain B632; about 50 mcg per disc, HeLa, 33° C., 4 to 5 days
Procedure: as §1, §2

[13] = test system: Rhinovirus Type 12; assay: Viral sensitivity, filter disc method; assay type: cell-based; conditions: strain 181CV16; about 50 mcg per disc, HeLa
Procedure: as §1, §2

[14] = test system: Rhinovirus Type 16; assay: Viral sensitivity, filter disc method; assay type: cell-based; conditions: strain 11757; about 50 mcg per disc, HeLa
Procedure: as §1, §2

[15] = test system: Rhinovirus Type 21; assay: Viral sensitivity, filter disc method; assay type: cell-based; conditions: strain 47CV21; about 50 mcg per disc, HeLa
Procedure: as §1, §2

[16] = test system: Rhinovirus Type 41; assay: Viral sensitivity, filter disc method; assay type: cell-based; conditions: strain 56110; about 50 mcg per disc, HeLa
Procedure: as §1, §2

[17] = test system: Rhinovirus Type 19; assay: Viral sensitivity, filter disc method; assay type: cell-based; conditions: strain 6072CV18; about 50 mcg per disc, HeLa
Procedure: as §1, §2

[18] = test system: Rhinovirus Type 5; assay: Viral sensitivity, filter disc method; assay type: cell-based; conditions: strain Norman; about 50 mcg per disc, HeLa
Procedure: as §1, §2

[19] = test system: Rhinovirus Type 46; assay: Viral sensitivity, filter disc method; assay type: cell-based; conditions: strain Baylor 2; about 50 mcg per disc, HeLa
Procedure: as §1, §2

[20] = test system: Rhinovirus Type 50; assay: Viral sensitivity, filter disc method; assay type: cell-based; conditions: strain A2 No. 58; about 50 mcg per disc, HeLa
Procedure: as §1, §2

[21] = test system: Rhinovirus Type 25; assay: Viral sensitivity, filter disc method; assay type: cell-based; conditions: strain 5426CV26; about 50 mcg per disc, HeLa
Procedure: as §1, §2

[22] = test system: Rhinovirus Type 9; assay: Viral sensitivity, filter disc method; assay type: cell-based; conditions: strain 211CV13; about 50 mcg per disc, HeLa
Procedure: as §1, §2

[23] = test system: Rhinovirus Type 51; assay: Viral sensitivity, filter disc method; assay type: cell-based; conditions: strain 605CV45; about 50 mcg per disc, HeLa
Procedure: as §1, §2

[24] = test system: Rhinovirus Type 11; assay: Viral sensitivity, filter disc method; assay type: cell-based; conditions: strain 1CV15; about 50 mcg per disc, HeLa
Procedure: as §1, §2

[25] = test system: Rhinovirus Type 45; assay: Viral sensitivity, filter disc method; assay type: cell-based; conditions: strain Baylor 1; about 50 mcg per disc, HeLa
Procedure: as §1, §2

[26] = test system: Rhinovirus Type 28; assay: Viral sensitivity, filter disc method; assay type: cell-based; conditions: strain 6101CV29; about 50 mcg per disc, HeLa
Procedure: as §1, §2

[27] = test system: Rhinovirus Type 13; assay: Viral sensitivity, filter disc method; assay type: cell-based; conditions: strain 353; about 50 mcg per disc, HeLa
Procedure: as §1, §2

[28] = test system: Rhinovirus Type 26; assay: Viral sensitivity, filter disc method; assay type: cell-based; conditions: strain 5660CV27; about 50 mcg per disc, HeLa
Procedure: as §1, §2

[29] = test system: Rhinovirus Type 15; assay: Viral sensitivity, filter disc method; assay type: cell-based; conditions: strain 1734; about 50 mcg per disc, HeLa
Procedure: as §1, §2

[30] = test system: Rhinovirus Type 31; assay: Viral sensitivity, filter disc method; assay type: cell-based; conditions: strain 140F; about 50 mcg per disc, HeLa
Procedure: as §1, §2

[31] = test system: Rhinovirus Type 23; assay: Viral sensitivity, filter disc method; assay type: cell-based; conditions: strain 5124CV24; about 50 mcg per disc, HeLa
Procedure: as §1, §2

[32] = test system: Rhinovirus Serotype 52; assay: Plaque assay, minimal inhibitory concentration; assay type: cell-based; conditions: Enterovirus; HeLa Cells; inhibiting virus plaque formation by 50%
[33] = test system: Rhinovirus Serotype 1B; assay: Plaque assay, minimal inhibitory concentration; assay type: cell-based; conditions: Enterovirus, inhibiting virus plaque formation by 50%

N=C(Nc1ccccc1)Nc1nc(-c2ccccc2)cs1 [1-(4-phenyl-2-thiazolyl)-3-phenylguanidine]
IC50 [1]: 1.6 to 3.1 µg/mL (≈ 5.44 to 10.5 µM) | IC50 [2]: 0.8 µg/mL (≈ 2.72 µM) | Protection of tissue from destruction by virus [3]: + | IC50 [4]: 1.6 to 3.1 µg/mL (≈ 5.44 to 10.5 µM) | inhibition of rhinovirus serotype (zone of 10 mm or more) [5]: inhibited | inhibition of rhinovirus serotype (zone of 10 mm or more) [6]: inhibited | inhibition of rhinovirus serotype (zone of 10 mm or more) [7]: inhibited | inhibition of rhinovirus serotype (zone of 10 mm or more) [8]: inhibited | inhibition of rhinovirus serotype (zone of 10 mm or more) [9]: inhibited | inhibition of rhinovirus serotype (zone of 10 mm or more) [10]: inhibited | inhibition of rhinovirus serotype (zone of 10 mm or more) [11]: inhibited | inhibition of rhinovirus serotype (zone of 10 mm or more) [12]: inhibited | inhibition of rhinovirus serotype (zone of 10 mm or more) [13]: inhibited | inhibition of rhinovirus serotype (zone of 10 mm or more) [14]: inhibited | inhibition of rhinovirus serotype (zone of 10 mm or more) [15]: inhibited | inhibition of rhinovirus serotype (zone of 10 mm or more) [16]: inhibited | inhibition of rhinovirus serotype (zone of 10 mm or more) [17]: inhibited | inhibition of rhinovirus serotype (zone of 10 mm or more) [18]: inhibited | inhibition of rhinovirus serotype (zone of 10 mm or more) [19]: inhibited | inhibition of rhinovirus serotype (zone of 10 mm or more) [20]: inhibited | inhibition of rhinovirus serotype (zone of 10 mm or more) [21]: inhibited | inhibition of rhinovirus serotype (zone of 10 mm or more) [22]: inhibited | inhibition of rhinovirus serotype (zone of 10 mm or more) [23]: inhibited | inhibition of rhinovirus serotype (zone of 10 mm or more) [24]: inhibited | inhibition of rhinovirus serotype (zone of 10 mm or more) [25]: inhibited | inhibition of rhinovirus serotype (zone of 10 mm or more) [26]: inhibited | inhibition of rhinovirus serotype (zone of 10 mm or more) [27]: inhibited | inhibition of rhinovirus serotype (zone of 10 mm or more) [28]: inhibited | inhibition of rhinovirus serotype (zone of 10 mm or more) [29]: inhibited | inhibition of rhinovirus serotype (zone of 10 mm or more) [30]: inhibited | inhibition of rhinovirus serotype (zone of 10 mm or more) [31]: inhibited | IC50 [32]: 0.4 µg/mL (≈ 1.36 µM) | IC50 ([33]; L132, L-132 Cells): 0.8 µg/mL (≈ 2.72 µM) | IC50 ([33]; HeLa Cells): 0.8 to 1.6 µg/mL (≈ 2.72 to 5.44 µM)

— patent publication US4089965A, “Thiazolylphenylguanidines as antirhinovirus agents” (American Cyanamid Company, priority 1977, dated 1978)
